Assay results published in patent US10131928B2, “Inositol biotransformation” (University Court of the University of St Andrews, priority 2013, dated 2018).
Read-outs that look alike come from different tables or passages of the source.

Experiments:
Assay type in all cases: biochemical
TbINO1 [1] = target: T1, TbINO1 (Trypanosoma brucei brucei, UniProt Q5QQ46); assay: biochemical
T1 construct: Hexa-His (N); made in house; host or cells: E. coli BL21 Rosetta (DE3)
T1 sequence (Q5QQ46 1-528): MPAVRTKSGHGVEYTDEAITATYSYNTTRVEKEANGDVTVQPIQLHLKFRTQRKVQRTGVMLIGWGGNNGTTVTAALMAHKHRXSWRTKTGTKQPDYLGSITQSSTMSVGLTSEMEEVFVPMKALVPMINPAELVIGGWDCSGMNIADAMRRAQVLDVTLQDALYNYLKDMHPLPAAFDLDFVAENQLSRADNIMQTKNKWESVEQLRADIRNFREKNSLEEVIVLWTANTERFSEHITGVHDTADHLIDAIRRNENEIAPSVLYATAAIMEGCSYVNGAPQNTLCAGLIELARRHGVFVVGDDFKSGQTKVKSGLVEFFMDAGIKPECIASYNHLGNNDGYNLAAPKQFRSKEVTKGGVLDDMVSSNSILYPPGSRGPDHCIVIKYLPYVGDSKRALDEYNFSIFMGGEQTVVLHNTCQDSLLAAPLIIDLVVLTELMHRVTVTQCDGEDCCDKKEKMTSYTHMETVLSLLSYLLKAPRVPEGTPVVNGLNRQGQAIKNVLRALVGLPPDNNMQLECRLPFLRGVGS
Experimental: (§1) An alternative reaction mixture consisted of 2 mM Tris-Ac (pH 9), 2 mM glucose-6-phosphate, 1 mM NAD^+, 1 mM DTT, 2 mM NH4Ac and 5 μg protein in a final volume of 20 μL. The reaction was incubated at 37° C. for 1 hr and terminated by heating at 100° C. for 10 min and the addition of 80 μL of 10 mM NaOH. For inhibitor studies the standard reaction mixture was prepared without glucose-6-phosphate, the inhibitor was added to the reaction and incubated on ice for 10 min prior to the addition of glucose-6-phosphate and subsequent incubation of 37° C. for 1 hr.
(§2) After quenching the reaction mix was analysed by high performance anion-exchange chromatography using a Dionex HPLC system with a CarboPacPA-1 column and PA-1 guard column (Dionex). The column was pre-equilibrated with 95% Buffer A (1 mM sodium hydroxide) and 5% Buffer B (1M sodium acetate+1 mM sodium hydroxide). An aliquot (20 μL) of the quenched reaction mixture was injected onto the column and eluted a linear gradient of 5-40% […], detected with pulsed amperometric detection and analysed with Chromeleon software (Dionex).
(§3) The TbINO1 was pre-incubated with potential inhibitor prior to the addition of glucose-6-phosphate or fructose-6-phosphate and quantification of inositol-3-phosphate and fructose-6-phosphate by HPLC.

TbINO1 [2] = target: T1, TbINO1; assay: biochemical; remark: listed apart in the source
Experimental: as §1, §2, §3

TbINO1 [3] = target: T1, TbINO1; assay: Compounds tested as substrates for TbINO1 in the standard reaction mixture, products separated by HPLC; conditions: tested as substrate, longer time periods; intermediate conversion to glucose-6-phosphate
Experimental: as §1
as §2, with “software (Dionex). The substrate glucose-6-phosphate and the product inositol-3-phosphate are clearly separated by this method. […]” for “software (Dionex).”

[4] = Table 2, inhibitor pre-incubated with recombinant TbINO1, glucose-6-phosphate as substrate, read-out: IC50 INO1 activity
[5] = Table 2, inhibitor pre-incubated with recombinant TbINO1, fructose-6-phosphate as substrate, read-out: IC50 PGI activity
[6] = Table 3, metabolic intermediates, pre-incubated, glucose-6-phosphate as substrate, read-out: IC50 INO1 activity
[7] = Table 3, metabolic intermediates, pre-incubated, fructose-6-phosphate as substrate, read-out: IC50 PGI activity

Row | Structure (SMILES) | IC50 (TbINO1 [1]) [mM] | inhibition of INO1 activity (TbINO1 [1]) | IC50 (TbINO1 [2]) [mM] | inhibition of PGI (glucose-6-phosphate isomerase) activity (TbINO1 [2]) | IC50 (TbINO1 [1]; [4]) [mM] | IC50 (TbINO1 [2]; [5]) [mM] | IC50 (TbINO1 [1]; [6]) [mM] | IC50 (TbINO1 [2]; [7]) [mM] | conversion to inositol-3-phosphate by TbINO1 (TbINO1 [3])
1 | O=CC(O)CO (centres unmarked) [Glyceraldehyde, glyceraldehyde] | > 10 | no inhibition | > 10 | no inhibition | – | – | – | – | –
2 | O=P(O)(O)OC[C@H]1OC(O)[C@H](O)[C@@H](O)[C@@H]1F (some centres unmarked) [4-F-Glucose-6-P, 4-fluoro-glucose-6-phospahte] | > 10 | – | > 10 | – | – | – | – | – | –
3 | COC1O[C@H](COP(=O)(O)O)[C@@H](O)[C@H](O)[C@H]1O (some centres unmarked) [1-OMe-Glucose-6-P, glucose-1-O-methyl-6-phospahte] | – | – | – | – | 2.5 | 2.5 | – | – | –
4 | CC(=O)N[C@H]1C(O)O[C@H](COP(=O)(O)O)[C@@H](O)[C@@H]1O (some centres unmarked) [Acetylglucosamine-6-P, acetylglucosamine-6-phosphate] | – | No inhibition | – | No inhibition | > 10 | > 10 | – | – | –
5 | O=C(CO)COP(=O)(O)O [DHAP] | – | Inhibition was observed | – | Inhibition was observed | – | – | 3 | 3 | –
6 | O=P(O)(O)O[C@H]1O[C@H](CO)[C@@H](O)[C@H](O)[C@H]1O [Glucose-1-P, glucose-1-phosphate] | – | No inhibition | – | No inhibition | > 10 | > 10 | – | – | –
7 | O=C(CO)[C@@H](O)[C@H](O)[C@H](O)COP(=O)(O)O [fructose-6-phosphate] | – | – | – | – | – | – | – | – | quantitative conversion
8 | CCCC(CCC)C(=O)O [VPA] | – | No inhibition | – | No inhibition | – | – | > 10 | > 10 | –
9 | O=C(CO)CO [DHA] | – | no inhibition | – | no inhibition | – | – | > 10 | > 10 | –
10 | CC(=O)C(=O)O [Pyruvate, pyruvate] | > 10 | – | > 10 | – | – | – | – | – | –
11 | O=C[C@@H](O)[C@@H](O)[C@H](O)[C@H](O)COP(=O)(O)O [Mannose-6-P, mannose-6-phosphate] | > 10 | No inhibition | > 10 | No inhibition | – | – | – | – | –
12 | C=C(OP(=O)(O)O)C(=O)O [PEP] | – | No inhibition | – | No inhibition | – | – | > 10 | > 10 | –
13 | O=CC[C@@H](O)[C@H](O)[C@H](O)CO [2-Deoxyglucose] | > 10 | – | > 10 | – | – | – | – | – | –
14 | O=P(O)(O)OC[C@H]1OC(O)[C@H](O)[C@@H](F)[C@@H]1O (some centres unmarked) [3-F-Glucose-6-P, 3-fluoro-glucose-6-phospahte] | 2.5 | – | 2.5 | – | – | – | – | – | –
15 | O=C(O)[C@H](O)[C@@H](O)[C@H](O)[C@H](O)COP(=O)(O)O [6-phosphogluconic acid] | > 10 | No inhibition | > 10 | No inhibition | – | – | – | – | –
16 | O=P(O)(O)OC[C@H]1OC(O)[C@H](F)[C@@H](O)[C@@H]1O (some centres unmarked) [2-F-Glucose-6-P, 2-fluoro-glucose-6-phospahte] | – | – | – | – | 1 | 1 | – | – | –
17 | O=C[C@H](O)[C@@H](O)[C@@H](O)[C@H](O)COP(=O)(O)O [Galactose-6-P, galactose-6-phosphate] | > 10 | No inhibition | > 10 | No inhibition | – | – | – | – | –
18 | O=C[C@H](O)COP(=O)(O)O [GAP] | – | Inhibition was observed | – | Inhibition was observed | – | – | 2 | 2 | –
19 | CC(=O)N[C@H]1C(OP(=O)(O)O)O[C@H](CO)[C@@H](O)[C@@H]1O (some centres unmarked) [Acetylglucosamine-1-P, acetylglucosamine-1-phosphate] | – | No inhibition | – | No inhibition | > 10 | > 10 | – | – | –
20 | O=C(O)CC(=O)C(=O)O [OAA] | – | Inhibition was observed | – | Inhibition was observed | – | – | 1.5 | 2 | –
21 | O=P(O)(O)OCC(O)CO (centres unmarked) [Glycerophosphate] | – | No inhibition | – | No inhibition | > 10 | > 10 | – | – | –
22 | O=P(O)(O)OC[C@H]1OC(O)C[C@@H](O)[C@@H]1O (some centres unmarked) [2-Deoxyglucose-6-P] | 4 | – | 4 | – | – | – | – | – | –
